Legend:
[1] = target: Alpha-2B adrenergic receptor (Homo sapiens) (UniProt P18089); details: Compound concentration 10.0 uM
[2] = target: Sodium-dependent noradrenaline transporter (Homo sapiens, UniProt P23975); details: Compound concentration 10.0 uM
D(2) dopamine receptor = D(2) dopamine receptor (Homo sapiens, UniProt P14416); experiment: DRD2S Eurofins SafetyScan (Receptor)
[3] = target: Neuronal acetylcholine receptor; alpha4/beta2 (Homo sapiens, UniProt P17787+P43681); experiment: nAChR(a4/b2) Eurofins SafetyScreen (Other); set-up: species or system Blocker
Vasopressin V1a receptor = Vasopressin V1a receptor (Homo sapiens, UniProt P37288); experiment: AVPR1A Eurofins SafetyScan (Receptor)
[4] = target: Cholecystokinin receptor type A (Homo sapiens, UniProt P32238); experiment: CCKAR Eurofins SafetyScan (Receptor)
[5] = target: Beta-3 adrenergic receptor (Homo sapiens) (UniProt P13945); details: Compound concentration 10.0 uM
[6] = target: T1, 5-hydroxytryptamine receptor 2A (Homo sapiens, UniProt P28223); experiment: HTR2A Eurofins SafetyScan (Receptor)
[7] = AMPA receptor scintillation proximity binding assay; set-up: species or system Homo sapiens
[8] = target: Muscarinic acetylcholine receptor M2 (Homo sapiens) (UniProt P08172); details: Compound concentration 10.0 uM
[9] = target: Glutamate receptor ionotropic, NMDA 1 (Homo sapiens, UniProt Q05586+Q13224); experiment: NMDAR (1A/2B) Eurofins SafetyScreen (Other); set-up: species or system Blocker
Endothelin-1 receptor = Endothelin-1 receptor (Homo sapiens, UniProt P25101); experiment: EDNRA Eurofins SafetyScan (Receptor)
[10] = target: Sodium channel protein type 5 subunit alpha (Homo sapiens, UniProt Q14524); experiment: NAV1.5 Eurofins SafetyScreen (Other); set-up: species or system Blocker
[11] = target: T2, 5-hydroxytryptamine receptor 1B (Homo sapiens, UniProt P28222); experiment: HTR1B Eurofins SafetyScan (Receptor)
[12] = target: T3, 5-hydroxytryptamine receptor 2B (Homo sapiens, UniProt P41595); experiment: HTR2B Eurofins SafetyScan (Receptor)
Androgen receptor = Androgen receptor (Homo sapiens, UniProt P10275); experiment: AR Eurofins SafetyScan (Receptor)
[13] = target: D(4) dopamine receptor (Homo sapiens) (UniProt P21917); details: Compound concentration 10.0 uM
D(1A) dopamine receptor = D(1A) dopamine receptor (Homo sapiens, UniProt P21728); experiment: DRD1 Eurofins SafetyScan (Receptor)
[14] = target: 5-hydroxytryptamine receptor 1A (Homo sapiens) (UniProt P08908); details: Compound concentration 10.0 uM
Histamine H1 receptor = Histamine H1 receptor (Homo sapiens, UniProt P35367); details: Compound concentration 10.0 uM
[15] = target: 5-hydroxytryptamine receptor 3A (Homo sapiens, UniProt P46098); experiment: HTR3A Eurofins SafetyScreen (Other); set-up: species or system Blocker
[16] = target: 5-hydroxytryptamine receptor 3A (Homo sapiens) (UniProt P46098); details: Compound concentration 10.0 uM
[17] = target: Histamine H3 receptor (Homo sapiens) (UniProt Q9Y5N1); details: Compound concentration 10.0 uM
[18] = target: 5-hydroxytryptamine receptor 6 (Homo sapiens) (UniProt P50406); details: Compound concentration 10.0 uM
[19] = target: T2, 5-hydroxytryptamine receptor 1B; details: Compound concentration 10.0 uM
[20] = target: Amine oxidase [flavin-containing] A (Homo sapiens, UniProt P21397); experiment: MAOA Eurofins SafetyScreen (Other); set-up: species or system Inhibitor
[21] = target: Tyrosine-protein kinase Lck (Homo sapiens, UniProt P06239); experiment: LCK Eurofins SafetyScreen (Other); set-up: species or system Inhibitor
[22] = target: Glutamate receptor ionotropic, NMDA 2C (Homo sapiens, UniProt Q05586+Q14957); experiment: GluN2C-containing NMDA receptor (Ca2+ influx) assay (EC50)
[23] = target: Sigma non-opioid intracellular receptor 1 (Homo sapiens) (UniProt Q99720); details: Compound concentration 10.0 uM
[24] = target: Alpha-2C adrenergic receptor (Homo sapiens) (UniProt P18825); details: Compound concentration 10.0 uM
[25] = target: Glutamate receptor ionotropic, NMDA 2B (Homo sapiens, UniProt Q05586+Q13224); experiment: GluN2B-containing NMDA receptor (Ca2+ influx) assay (EC50)
[26] = target: T4, Sodium-dependent dopamine transporter (Homo sapiens, UniProt Q01959); experiment: DAT Eurofins SafetyScreen (Other); set-up: species or system Blocker
[27] = target: Sigma intracellular receptor 2 (Homo sapiens) (UniProt Q5BJF2); details: Compound concentration 10.0 uM
Mu-type opioid receptor = Mu-type opioid receptor (Homo sapiens, UniProt P35372); experiment: OPRM1 Eurofins SafetyScan (Receptor)
[28] = target: T3, 5-hydroxytryptamine receptor 2B; details: Compound concentration 10.0 uM
[29] = target: T4, Sodium-dependent dopamine transporter; details: Compound concentration 10.0 uM
[30] = target: D(3) dopamine receptor (Homo sapiens) (UniProt P35462); details: Compound concentration 10.0 uM
[31] = target: 5-hydroxytryptamine receptor 1A (Homo sapiens, UniProt P08908); experiment: HTR1A Eurofins SafetyScan (Receptor)
[32] = target: Prostaglandin G/H synthase 1 (Homo sapiens, UniProt P23219); experiment: COX1 Eurofins SafetyScreen (Other); set-up: species or system Inhibitor
[33] = target: Rho-associated protein kinase 1 (Homo sapiens, UniProt Q13464); experiment: ROCK1 Eurofins SafetyScreen (Other); set-up: species or system Inhibitor
[34] = target: Alpha-1D adrenergic receptor (Homo sapiens) (UniProt P25100); details: Compound concentration 10.0 uM
[35] = target: T1, 5-hydroxytryptamine receptor 2A; details: Compound concentration 10.0 uM
[36] = target: 5-hydroxytryptamine receptor 1D (Homo sapiens, UniProt P28221); experiment: GPCRScan assay: inhibition of 5-HT1D; set-up: radioligand conc. used [nm] 1.0 – 2.0, parental cells HEKT
[37] = target: Vascular endothelial growth factor receptor 2 (Homo sapiens, UniProt P35968); experiment: VEGFR2 Eurofins SafetyScreen (Other); set-up: species or system Inhibitor
[38] = target: Beta-2 adrenergic receptor (Homo sapiens, UniProt P07550); details: Compound concentration 10.0 uM
Cannabinoid receptor 1 = Cannabinoid receptor 1 (Homo sapiens, UniProt P21554); experiment: CNR1 Eurofins SafetyScan (Receptor)
Sequence of Cannabinoid receptor 1 (P21554 whole entry): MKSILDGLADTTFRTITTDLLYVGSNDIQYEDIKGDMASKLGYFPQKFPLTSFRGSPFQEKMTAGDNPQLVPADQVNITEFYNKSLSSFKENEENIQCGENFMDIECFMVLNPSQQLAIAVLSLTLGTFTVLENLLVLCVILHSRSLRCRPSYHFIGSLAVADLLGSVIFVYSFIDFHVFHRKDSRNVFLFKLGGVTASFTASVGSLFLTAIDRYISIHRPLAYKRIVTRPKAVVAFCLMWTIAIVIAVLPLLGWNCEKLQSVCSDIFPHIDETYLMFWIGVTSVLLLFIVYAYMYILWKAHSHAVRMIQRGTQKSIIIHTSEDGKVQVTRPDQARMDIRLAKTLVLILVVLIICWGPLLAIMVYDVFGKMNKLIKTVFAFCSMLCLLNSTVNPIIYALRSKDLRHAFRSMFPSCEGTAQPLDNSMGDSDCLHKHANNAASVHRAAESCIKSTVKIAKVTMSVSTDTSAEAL

T1 sequence (P28223 whole entry): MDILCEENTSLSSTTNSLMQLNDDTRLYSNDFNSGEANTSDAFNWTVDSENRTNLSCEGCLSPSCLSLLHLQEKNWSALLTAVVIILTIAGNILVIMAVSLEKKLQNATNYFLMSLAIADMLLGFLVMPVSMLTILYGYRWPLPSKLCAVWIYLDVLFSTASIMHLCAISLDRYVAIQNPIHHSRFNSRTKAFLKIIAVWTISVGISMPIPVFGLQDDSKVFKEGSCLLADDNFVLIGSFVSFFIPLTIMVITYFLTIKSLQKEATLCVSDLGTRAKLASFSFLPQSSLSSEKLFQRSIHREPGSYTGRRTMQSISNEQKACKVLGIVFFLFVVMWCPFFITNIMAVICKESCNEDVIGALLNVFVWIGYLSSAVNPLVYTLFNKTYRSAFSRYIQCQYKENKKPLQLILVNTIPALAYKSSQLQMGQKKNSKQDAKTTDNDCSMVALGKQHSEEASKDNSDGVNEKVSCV
T2 sequence (P28222 whole entry): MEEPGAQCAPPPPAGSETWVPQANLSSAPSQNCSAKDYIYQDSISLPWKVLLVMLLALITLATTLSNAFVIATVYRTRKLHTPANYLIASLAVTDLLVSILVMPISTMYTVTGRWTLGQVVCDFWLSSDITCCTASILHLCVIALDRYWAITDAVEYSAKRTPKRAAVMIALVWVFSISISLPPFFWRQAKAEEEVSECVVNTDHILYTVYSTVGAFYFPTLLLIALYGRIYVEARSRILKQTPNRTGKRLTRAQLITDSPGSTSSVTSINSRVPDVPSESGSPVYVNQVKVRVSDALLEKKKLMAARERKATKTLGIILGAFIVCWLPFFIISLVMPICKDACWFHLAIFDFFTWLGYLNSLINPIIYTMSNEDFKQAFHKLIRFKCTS
T3 sequence (P41595 whole entry): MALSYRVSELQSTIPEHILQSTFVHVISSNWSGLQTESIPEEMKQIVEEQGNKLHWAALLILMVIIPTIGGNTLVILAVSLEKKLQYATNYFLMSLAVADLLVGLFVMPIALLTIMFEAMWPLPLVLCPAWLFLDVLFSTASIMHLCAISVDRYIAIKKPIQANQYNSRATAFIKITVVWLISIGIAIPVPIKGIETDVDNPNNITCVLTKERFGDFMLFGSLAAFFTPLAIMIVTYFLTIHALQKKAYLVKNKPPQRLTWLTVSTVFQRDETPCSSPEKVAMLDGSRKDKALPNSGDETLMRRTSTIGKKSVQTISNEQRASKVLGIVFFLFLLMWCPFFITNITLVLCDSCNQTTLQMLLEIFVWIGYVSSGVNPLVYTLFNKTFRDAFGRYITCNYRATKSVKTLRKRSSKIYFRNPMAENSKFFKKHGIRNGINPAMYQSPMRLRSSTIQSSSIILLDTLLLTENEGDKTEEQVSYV
Sequence of Mu-type opioid receptor (P35372 whole entry): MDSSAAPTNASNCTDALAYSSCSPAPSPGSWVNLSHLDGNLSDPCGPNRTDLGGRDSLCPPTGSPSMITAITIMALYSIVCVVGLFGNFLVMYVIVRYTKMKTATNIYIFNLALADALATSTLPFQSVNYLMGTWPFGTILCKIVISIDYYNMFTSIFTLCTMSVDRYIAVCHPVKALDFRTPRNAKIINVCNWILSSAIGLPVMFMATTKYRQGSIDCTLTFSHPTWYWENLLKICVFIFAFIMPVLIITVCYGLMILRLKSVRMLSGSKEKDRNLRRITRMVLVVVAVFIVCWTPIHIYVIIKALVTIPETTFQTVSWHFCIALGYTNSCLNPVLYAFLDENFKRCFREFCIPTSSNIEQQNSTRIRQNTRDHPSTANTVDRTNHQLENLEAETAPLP
T4 sequence (Q01959 whole entry): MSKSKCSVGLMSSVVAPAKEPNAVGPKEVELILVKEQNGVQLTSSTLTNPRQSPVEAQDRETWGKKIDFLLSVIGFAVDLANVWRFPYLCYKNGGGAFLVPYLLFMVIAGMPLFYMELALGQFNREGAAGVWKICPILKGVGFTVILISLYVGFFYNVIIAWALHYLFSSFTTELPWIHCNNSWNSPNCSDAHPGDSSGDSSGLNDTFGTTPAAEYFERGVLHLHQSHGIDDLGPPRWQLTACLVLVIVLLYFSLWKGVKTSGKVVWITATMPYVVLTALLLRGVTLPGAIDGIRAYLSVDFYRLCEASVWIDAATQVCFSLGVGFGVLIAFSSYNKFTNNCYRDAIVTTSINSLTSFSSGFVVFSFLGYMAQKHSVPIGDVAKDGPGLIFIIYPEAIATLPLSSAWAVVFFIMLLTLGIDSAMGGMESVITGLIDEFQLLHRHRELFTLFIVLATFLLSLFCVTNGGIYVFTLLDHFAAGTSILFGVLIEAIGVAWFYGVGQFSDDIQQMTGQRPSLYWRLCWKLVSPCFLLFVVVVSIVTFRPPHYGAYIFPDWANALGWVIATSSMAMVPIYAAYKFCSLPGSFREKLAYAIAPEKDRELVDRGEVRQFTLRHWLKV
Sequence of Cholecystokinin receptor type A (P32238 whole entry): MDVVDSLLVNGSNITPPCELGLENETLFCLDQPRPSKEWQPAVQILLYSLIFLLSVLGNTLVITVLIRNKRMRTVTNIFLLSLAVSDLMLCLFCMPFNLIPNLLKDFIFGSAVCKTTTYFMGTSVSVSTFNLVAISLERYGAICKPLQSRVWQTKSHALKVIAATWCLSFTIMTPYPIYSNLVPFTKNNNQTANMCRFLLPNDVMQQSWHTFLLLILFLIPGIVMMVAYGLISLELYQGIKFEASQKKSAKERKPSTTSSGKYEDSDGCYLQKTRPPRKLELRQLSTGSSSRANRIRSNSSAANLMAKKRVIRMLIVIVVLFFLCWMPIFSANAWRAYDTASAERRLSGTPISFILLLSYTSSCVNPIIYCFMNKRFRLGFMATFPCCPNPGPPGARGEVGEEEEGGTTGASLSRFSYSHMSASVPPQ
Sequence of Androgen receptor (P10275 whole entry): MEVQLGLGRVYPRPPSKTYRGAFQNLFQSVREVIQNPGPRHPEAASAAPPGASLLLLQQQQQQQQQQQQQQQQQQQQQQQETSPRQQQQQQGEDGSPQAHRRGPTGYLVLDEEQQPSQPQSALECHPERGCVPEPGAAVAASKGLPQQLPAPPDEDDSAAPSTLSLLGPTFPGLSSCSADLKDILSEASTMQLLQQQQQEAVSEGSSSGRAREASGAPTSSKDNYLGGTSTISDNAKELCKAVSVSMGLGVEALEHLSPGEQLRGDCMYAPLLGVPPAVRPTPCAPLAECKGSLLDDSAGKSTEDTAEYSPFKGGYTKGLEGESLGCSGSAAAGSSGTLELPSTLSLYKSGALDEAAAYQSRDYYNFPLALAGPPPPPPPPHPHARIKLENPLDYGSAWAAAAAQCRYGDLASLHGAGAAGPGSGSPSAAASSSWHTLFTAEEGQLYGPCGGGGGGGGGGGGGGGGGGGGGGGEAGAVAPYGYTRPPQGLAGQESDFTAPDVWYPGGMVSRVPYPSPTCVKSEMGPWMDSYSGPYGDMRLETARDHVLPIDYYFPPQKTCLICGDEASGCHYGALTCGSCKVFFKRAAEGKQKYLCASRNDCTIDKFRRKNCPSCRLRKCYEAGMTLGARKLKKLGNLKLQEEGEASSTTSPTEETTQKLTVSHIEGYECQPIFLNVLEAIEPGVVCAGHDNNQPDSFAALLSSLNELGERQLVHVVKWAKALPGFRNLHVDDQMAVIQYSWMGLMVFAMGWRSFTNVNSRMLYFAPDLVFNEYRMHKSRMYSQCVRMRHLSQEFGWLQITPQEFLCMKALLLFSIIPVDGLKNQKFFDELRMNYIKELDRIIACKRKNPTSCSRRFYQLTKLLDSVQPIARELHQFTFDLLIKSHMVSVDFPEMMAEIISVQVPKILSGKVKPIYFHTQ
Sequence of 5-hydroxytryptamine receptor 1D (P28221 whole entry): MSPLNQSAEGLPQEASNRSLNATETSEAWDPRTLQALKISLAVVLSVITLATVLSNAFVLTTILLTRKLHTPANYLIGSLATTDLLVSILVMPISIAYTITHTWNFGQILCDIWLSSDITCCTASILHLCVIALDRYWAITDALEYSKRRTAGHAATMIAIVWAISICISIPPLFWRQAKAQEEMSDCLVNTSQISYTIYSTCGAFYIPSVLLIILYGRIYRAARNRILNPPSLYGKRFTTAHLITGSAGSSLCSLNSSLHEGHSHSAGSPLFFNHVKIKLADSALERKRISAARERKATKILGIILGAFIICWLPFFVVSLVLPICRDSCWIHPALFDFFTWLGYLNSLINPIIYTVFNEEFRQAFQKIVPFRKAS
Sequence of 5-hydroxytryptamine receptor 1A (P08908 whole entry): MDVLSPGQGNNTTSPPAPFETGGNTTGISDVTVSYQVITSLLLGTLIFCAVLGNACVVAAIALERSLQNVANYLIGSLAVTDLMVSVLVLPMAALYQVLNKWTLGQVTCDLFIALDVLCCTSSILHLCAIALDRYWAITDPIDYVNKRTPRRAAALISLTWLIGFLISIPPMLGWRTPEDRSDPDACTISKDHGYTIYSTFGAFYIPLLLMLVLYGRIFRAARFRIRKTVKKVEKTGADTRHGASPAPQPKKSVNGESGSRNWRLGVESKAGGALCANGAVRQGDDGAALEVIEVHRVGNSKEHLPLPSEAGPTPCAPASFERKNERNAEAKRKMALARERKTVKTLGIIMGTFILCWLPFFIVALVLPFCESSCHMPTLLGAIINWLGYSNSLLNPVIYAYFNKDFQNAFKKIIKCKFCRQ

Cc1cn([C@H](C)CC#N)c(=O)c2cc(Cn3nc(C(F)F)cc3Cl)nn12
> 10 µM: EC50 (D(2) dopamine receptor) | IC50 (D(2) dopamine receptor) | IC50 [3] | EC50 (Vasopressin V1a receptor) | IC50 (Vasopressin V1a receptor) | EC50 [4] | IC50 [4] | EC50 [6] | IC50 [6] | IC50 [9] | EC50 (Endothelin-1 receptor) | IC50 (Endothelin-1 receptor) | IC50 [10] | EC50 [11] | IC50 [11] | EC50 [12] | IC50 [12] | EC50 (Androgen receptor) | IC50 (Androgen receptor) | EC50 (D(1A) dopamine receptor) | IC50 (D(1A) dopamine receptor) | IC50 [15] | IC50 [20] | IC50 [21] | IC50 [26] | EC50 (Mu-type opioid receptor) | IC50 (Mu-type opioid receptor) | EC50 [31] | IC50 [31] | IC50 [32] | IC50 [33] | Ki [36] | IC50 [37] | EC50 (Cannabinoid receptor 1) | IC50 (Cannabinoid receptor 1)
< 5: pKi [36]
> 30 µM (not active): IC50 [7] | EC50 [22] | EC50 [25]
active: inhibition [29] 54.8%
inactive: inhibition [1] 6.16% | inhibition [2] -4% | inhibition [5] -3.8% | inhibition [8] 4.32% | inhibition [13] 48.5% | inhibition [14] -5.4% | inhibition (Histamine H1 receptor) 31.7% | inhibition [16] 0.11% | inhibition [17] 34.8% | inhibition [18] 8.34% | inhibition [19] 21.7% | inhibition [23] 1.48% | inhibition [24] -1.11% | inhibition [27] 10.9% | inhibition [28] 42.7% | inhibition [30] 33% | inhibition [34] 10.6% | inhibition [35] -5.37% | inhibition [38] -1.62%

Source: ChEMBL document CHEMBL5058641, “Data for DCP probe TP-050” (2022)
